We go through eight sequences from paper PMC9094701, “Multiple-Allele MHC Class II Epitope Engineering by a Molecular Dynamics-Based Evolution Protocol” (Frontiers in Immunology, 2022).

In one test the test system is IFNγ-producing cells. The experiment in a line: IFNγ ELISpot of splenocytes from immunized mice. Format: in vivo, C57BL/6 mice. The following applies: for specific IFNγ-producing cells: C57BL/6 mice, two s.c. doses of 50 μg peptide with AddaVax, splenocytes 15 days after last dose, restimulated with the same peptide 18 h, ELISpot, mean; for Experimental rank: rank from the ex vivo experiments.

The target in test [1] is MHC II (HLA) allele DRB1*01:01 (Homo sapiens, UniProt P01903+P01911, A100R/D57E/F55L/F60I/F76Y/I96L/L162R/M171V/P40L/Q125E/R42F/V115G/Y59C). The experiment in a line: ProImmune REVEAL MHC-peptide binding assay. As to conditions: score 0-100 by comparison with a control T-cell epitope, 0 and 24 hours, Figure 2E.
For test [2], the system named is MHC II alleles DRB1*01:01, DRB1*03:01, DRB1*04:01 and DRB1*15:01. The experiment in a line: Multiple-allele REVEAL score. Format: binding, human. As to conditions: average of the scores of each allele; Figure 4A. How it is done: The 18 designed candidates and the additional controls were synthesized and analysed using the ProImmune REVEAL® MHC-peptide binding assay to determine their level of binding to the MHC II alleles DRB1*01:01, DRB1*03:01, DRB1*04:01 and DRB1*15:01. A multiple-allele score was measured to evaluate if the peptides improved toward multiple alleles ( Figure 4A ). Of the 18 peptides, the peptide […] could not be synthesized by the Prospector PEPscreen® technology. […] None of the peptides, including the controls, were able to trigger a signal for the allele DRB1*03:01 (see Figure 4A ). […]
A gold-standard method of rate binding experiments against the MHC II alleles was performed with the Proimmune REVEAL® binding assay. The method uses antibody-labelled peptides that emit a signal if native conformations of the complexes are detected. […]
For the single-allele binding optimization phase, 17 peptides selected were assayed together with the controls against the DRB1*01:01 allele. For the multiple-allele engineering phase, 18 P. vivax engineered epitopes were evaluated for the MHC II alleles DRB1*01:01, DRB1*03:01, DRB1*04:01 and DRB1*15:01. A multiple-allele score was calculated by averaging the scores of each allele, and by weighting each allele based on the their frequencies in the world population. […]

[3] abbreviates: Influenza sequences and PADRE, Table S11.

In the case of YSKYKKQNTLKAAT, the “specific IFNγ-producing cells” value in the test with IFNγ-producing cells is 473 SFU/10^6 cells. Also, the Experimental rank in the test on IFNγ-producing cells (setting [3]) was determined as 2. Moreover, the “REVEAL binding score, performance in words” value in test [1] was “much superior to the original peptide sequence, and even to the PADRE control”.
With “YPKYVKQNTLKLAT [Influenza A virus peptide from the Hemagglutinin antigen, reference compound]”, the “specific IFNγ-producing cells” value with IFNγ-producing cells turned out to be 463 SFU/10^6 cells. Further, in the test with IFNγ-producing cells (setting [3]), the Experimental rank is listed as 3.
DYTVVYLKPLAGYDN: the “specific IFNγ-producing cells” value in the test on IFNγ-producing cells is on record as 54 SFU/10^6 cells. This sequence also registered an Experimental rank in the test on IFNγ-producing cells (P. vivax sequences, Table S10) of 5.
The sequence AKFVAAWTLKAAA [reference compound] had an Experimental rank in the test with IFNγ-producing cells (setting [3]) of 1.
In the case of DYDVVYWKPLAGIYK, the “specific IFNγ-producing cells” value in the test on IFNγ-producing cells stood at 228 SFU/10^6 cells. In the test on IFNγ-producing cells (P. vivax sequences, Table S10), this sequence displayed an Experimental rank of 2.
In the same order, the values of VYDVVYLKPLAGCYK are 145 SFU/10^6 cells and 3.
In the same order, the values of DYDVVYLKPLAGMYK [reference compound] are 295 SFU/10^6 cells and 1.
Regarding DYTVVYLKPLAGYDH, the “specific IFNγ-producing cells” value with IFNγ-producing cells stood at 127 SFU/10^6 cells. For the same sequence, the Experimental rank in the test on IFNγ-producing cells (P. vivax sequences, Table S10) amounted to 4. In addition, the “Multiple-allele REVEAL score, in words” value in test [2] is reported as “superior to the PADRE epitope”.
